Measurements: article PMC13198932, “Pyrazolone-based ERO1 inhibitors in ERO1-driven triple-negative breast cancer and SEPN1-related myopathy: Structure–activity relationship and therapeutic potential” (Pharmacological research, 2025)
Entries after “also recorded” stand apart in the source; their conditions may differ.

Experiments:
recombinant PDI = recombinant PDI (Homo sapiens, UniProt P07237); assay: PDI activity assay (insulin transhydrogenase / insulin turbidity assay); type: biochemical; conditions: 25 μM, 15 min incubation
Experimental: PDI activity was assessed using an insulin transhydrogenase assay. Bovine insulin (1 mg/mL) in sodium phosphate buffer, pH 7.0, containing 2 mM EDTA, was incubated with 1.4 μM recombinant PDI in the presence of vehicle (1 % DMSO) or various concentrations of isoquercetin (30 or 60 μM), EN460, I2, I26, or I29 (1, 5, or 25 μM) for 15 min. The turbidimetric assay of insulin disulfide reduction by PDI was initiated by adding 1 mM dithiothreitol, and the reaction was monitored at 650 nm for 80 min. PDI activity is presented as a percentage of the vehicle control.

[1] = target: T1, Human monoamine oxidase A (Mao-A) (Homo sapiens, UniProt P21397); assay: Mao-A activity assay (commercial kit, p-tyramine, H2O2 fluorimetry); type: biochemical; conditions: 25 μM, 10 min incubation
T1 construct: purchased Sigma-Aldrich
T1 sequence (P21397 1-527): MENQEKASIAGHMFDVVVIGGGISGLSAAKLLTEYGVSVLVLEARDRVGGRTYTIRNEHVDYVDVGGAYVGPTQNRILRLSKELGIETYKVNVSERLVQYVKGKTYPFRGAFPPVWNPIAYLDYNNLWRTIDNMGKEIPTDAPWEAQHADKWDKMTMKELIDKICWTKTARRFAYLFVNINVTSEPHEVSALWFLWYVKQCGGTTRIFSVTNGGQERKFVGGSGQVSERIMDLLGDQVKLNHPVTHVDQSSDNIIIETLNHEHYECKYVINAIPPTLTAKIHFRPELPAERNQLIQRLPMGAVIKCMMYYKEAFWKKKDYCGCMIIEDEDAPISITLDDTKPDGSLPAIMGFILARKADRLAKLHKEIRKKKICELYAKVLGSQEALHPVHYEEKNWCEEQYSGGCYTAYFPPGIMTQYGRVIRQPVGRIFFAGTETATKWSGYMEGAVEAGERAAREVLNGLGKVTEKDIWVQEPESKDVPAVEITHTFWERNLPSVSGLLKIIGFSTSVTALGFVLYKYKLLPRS
Experimental: Mao-A activity was measured using a commercial assay kit according to the manufacturer’s instructions. Mao-A (0.837 μM) was incubated with vehicle (1 % DMSO), Clorgyline (50 μM), or various concentrations (1, 5, or 25 μM) of EN460, I2, I26, or I29 for 10 min. Mao-A catalyzes the oxidative deamination of p-tyramine, generating H2O2, which was quantified fluorimetrically (λex= 530; λem= 585 nm). Mao-A activity is presented as a percentage of the vehicle control.

MDAMB231 cells = assay: MTS assay of metabolic activity in MDAMB231 cells; type: cell-based, human; conditions: MDAMB231, dose-response, 24 h, 1 % FBS
Experimental: Six thousand cells (MDAMB231 and E0771) per well were seeded in 96-well plates and cultured in medium containing 1 % FBS. Cells were treated with varying concentrations of compounds and, after 24 h, incubated with MTS [3-(4,5-dimethylthiazol-2-yl)-5-(3-carboxymethoxyphenyl)-2-(4 sulfophenyl)2Htetrazolium]and PMS (phenazine methosulfate), following the instructions of the CellTiter 96® Aqueous Non-Radioactive Cell Proliferation Assay (Promega). Measurements were performed using a TECAN Infinite M200 plate reader with […] at 490 nm.

[2] = target: T2, ERO1 in MDA-MB-231 breast cancer cells (Homo sapiens, UniProt Q96HE7); assay: ERO1 redox state by non-reducing immunoblot in MDA-MB-231 cells; type: cell-based
T2 construct: Non-reducing Immunoblot of endogenous ERO1 in lysates of vehicle-treated MDAMB231; endogenous in cells; host or cells: MDA-MB-231
T2 sequence (Q96HE7 24-468): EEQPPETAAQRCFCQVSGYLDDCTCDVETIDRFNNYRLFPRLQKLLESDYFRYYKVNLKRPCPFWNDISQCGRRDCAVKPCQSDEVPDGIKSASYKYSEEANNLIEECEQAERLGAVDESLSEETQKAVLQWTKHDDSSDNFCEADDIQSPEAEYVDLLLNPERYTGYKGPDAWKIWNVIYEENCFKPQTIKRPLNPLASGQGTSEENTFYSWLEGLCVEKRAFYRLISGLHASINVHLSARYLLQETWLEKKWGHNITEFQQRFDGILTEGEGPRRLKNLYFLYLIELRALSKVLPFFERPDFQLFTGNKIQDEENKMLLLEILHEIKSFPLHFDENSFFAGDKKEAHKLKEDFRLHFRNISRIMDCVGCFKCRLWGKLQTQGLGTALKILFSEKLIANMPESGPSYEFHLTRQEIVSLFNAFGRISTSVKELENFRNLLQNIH
Experimental: MDAMB231 and E0771 cells were maintained in Dulbecco’s Modified Eagle’s Medium supplemented with 1 % fetal bovine serum and seeded at 70 % confluency in six-well plates one day prior to the experiment. Cells were treated with DTT (10 mM) and/or ERO1A inhibitors for 1–5 h. At the time of collection, phosphate-buffered saline containing 10 mM NEM was added, and cells were incubated on ice for 10 min in lysis buffer (50 mM Tris-HCl, pH 7.4; 150 mM NaCl; 1 % Triton X-100; 0.1 % SDS; 1 % sodium deoxycholate; protease inhibitors; and 10 mM NEM). Protein concentrations were determined using the BCA assay, and equal amounts of protein were separated by non-reducing SDS-PAGE followed by immunoblotting with a polyclonal antibody against ERO1A [33].

[3] = system: WT and SEPN1 KD C2C12 cells; assay: Super resolution microscopy (SIM) of ER volume and mitochondrial network; type: cell-based; conditions: for mitochondrial network (total branch length): SEPN1 KD cells; for ER volume: WT and SEPN1 KD cells
Text: Structured illumination microscopy (SIM) was done on a Nikon SIM system with a 100 × 1.49 objective. Briefly, randomly selected cells were imaged at laser excitation of 405 nm (nuclei), 561 nm (ER), and 640 nm (mitochondria) with a 3D-SIM acquisition protocol. SIM images were quantified with ImageJ. After background normalization, the ER signals was segmentated to calculate the volume of the ER expressed as fraction of the cell. The segmentated mitochondrial signal was followed by the skeletonize function of ImageJ to perform mitochondria network analysis. We then applied the Analyze Skeleton 2D/3D plugin of ImageJ to measure each cell total branch length, expressed as μm.

Sequence of recombinant PDI (P07237 18-508, species assumed): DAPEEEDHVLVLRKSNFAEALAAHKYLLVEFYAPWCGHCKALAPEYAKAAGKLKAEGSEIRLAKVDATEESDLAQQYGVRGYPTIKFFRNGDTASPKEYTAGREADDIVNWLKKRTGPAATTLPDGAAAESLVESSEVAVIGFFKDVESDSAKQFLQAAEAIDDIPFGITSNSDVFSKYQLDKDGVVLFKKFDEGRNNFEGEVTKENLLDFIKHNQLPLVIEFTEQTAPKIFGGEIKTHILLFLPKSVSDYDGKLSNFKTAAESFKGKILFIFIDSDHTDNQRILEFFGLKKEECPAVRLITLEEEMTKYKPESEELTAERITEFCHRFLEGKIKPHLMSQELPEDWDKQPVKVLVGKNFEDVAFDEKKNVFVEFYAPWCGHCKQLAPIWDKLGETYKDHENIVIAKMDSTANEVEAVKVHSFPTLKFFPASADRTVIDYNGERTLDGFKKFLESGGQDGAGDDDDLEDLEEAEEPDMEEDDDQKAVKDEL

ERO1 reduction (redox state) ([2]; MDA-MB-231, 20 μM, Fig. Sup. 2A) | ERO1 reduction ([2]; MDA-MB-231, 20 μM, dose-response 1–20 μM, Fig. 4B) | concentration achieving complete ERO1 reduction ([2]; MDA-MB-231, dose-response 5–20 μM, Fig. Sup. 2B) [µM] | SMILES | PDI activity (percentage of the vehicle control) (recombinant PDI) | Mao-A activity (percentage of the vehicle control) [1] | metabolic activity (MTS assay) (MDAMB231 cells) | ERO1 reduction compared with EN460 ([2]; MDAMB231, Fig. 4D) | mitochondrial network (total branch length) [3] | ER volume [3]
 |  |  | O=C1/C(=C/c2ccc(-c3ccccc3)o2)C(C(F)(F)F)=NN1c1ccccc1F [I29] | inhibited PDI activity | inhibited Mao-A activity | significantly reduced metabolic activity; also recorded: higher potency than EN460 | reduced more efficiently ERO1 | selectively improved the mitochondrial network | did not change substantially
efficiently reduced ERO1 | near-complete reduction of ERO1 | 15 | O=C(O)c1cc(N2N=C(C(F)(F)F)/C(=C\c3ccc(-c4ccccc4)o3)C2=O)ccc1Cl [EN460, reference compound] | inhibited PDI activity | inhibited Mao-A activity | significantly reduced metabolic activity |  | selectively improved the mitochondrial network | did not change substantially
